Where “and” joins values, the source holds several entries; their conditions need not be identical. Identical values can stand only once. Toxic doses and inconclusive results are not listed.
Test system: BDF1 mice, P288 leukemia ip, survival T/C
Experiment: NCI In Vivo Anticancer Drug Screen. Data for tumor model P288 Lymphocytic Leukemia (intraperitoneal) in B6D2F1 (BDF1) mice
Details: endpoint: survival time, mean or median, higher = longer survival
Procedure: The antitumor activity of compounds was measured in mice bearing transplantable tumors. Survival or tumor size were measured and the results are expressed as the measurement made in the treated group (T) divided by the measurement made in the vehicle treated control group (C). The tumor model used in this assay is P288 Lymphocytic Leukemia (intraperitoneal) in B6D2F1 (BDF1) mice

[1] = dose: 25.0 mg/kg/injection, schedule: Q01DX010 (ip), vehicle: saline
[2] = dose: 50.0 mg/kg/injection, schedule: Q01DX010 (ip), vehicle: saline
[3] = dose: 100.0 mg/kg/injection, schedule: Q01DX010 (ip), vehicle: saline
[4] = dose: 200.0 mg/kg/injection, schedule: Q01DX010 (ip), vehicle: saline
[5] = dose: 6.25 mg/kg/injection, schedule: Q01DX Z (ip), vehicle: carboxymethylcellulose (CMC)
[6] = dose: 12.5 mg/kg/injection, schedule: Q01DX Z (ip), vehicle: carboxymethylcellulose (CMC)
[7] = dose: 25.0 mg/kg/injection, schedule: Q01DX Z (ip), vehicle: carboxymethylcellulose (CMC)
[8] = dose: 50.0 mg/kg/injection, schedule: Q01DX Z (ip), vehicle: carboxymethylcellulose (CMC)
[9] = dose: 62.5 mg/kg/injection, schedule: Q01DX010 (ip), vehicle: saline
[10] = dose: 125.0 mg/kg/injection, schedule: Q01DX010 (ip), vehicle: saline

Question: Which T/C (dose: 1.0 mg/kg/injection, schedule: Q01DX Z (sc), vehicle: steriod suspending solution) does the source give for `CC/C(=C(/CC)c1ccc(O)cc1)c1ccc(O)cc1` here?
Answer: 100 % of control

Question: What about the T/C (dose: 2.0 mg/kg/injection, schedule: Q01DX Z (sc), vehicle: steriod suspending solution) of the same compound?
Answer: 103 % of control

Question: What about the T/C (dose: 4.0 mg/kg/injection, schedule: Q01DX Z (sc), vehicle: steriod suspending solution) of the same compound?
Answer: 97 % of control

Question: And the T/C (dose: 8.0 mg/kg/injection, schedule: Q01DX Z (sc), vehicle: steriod suspending solution)?
Answer: 118 % of control

Question: What about the T/C (dose: 12.5 mg/kg/injection, schedule: Q01DX010 (sc), vehicle: steriod suspending solution) of the same compound?
Answer: 100 % of control

Question: What about the T/C (dose: 16.0 mg/kg/injection, schedule: Q01DX Z (sc), vehicle: steriod suspending solution) of the same compound?
Answer: 118 % of control

Question: What about the T/C (dose: 25.0 mg/kg/injection, schedule: Q01DX010 (sc), vehicle: steriod suspending solution) of the same compound?
Answer: 106 % of control

Question: And the T/C (dose: 31.0 mg/kg/injection, schedule: Q01DX Z (sc), vehicle: steriod suspending solution)?
Answer: 103 % of control

Question: And the T/C (dose: 50.0 mg/kg/injection, schedule: Q01DX010 (sc), vehicle: steriod suspending solution)?
Answer: 112 % of control and 121 % of control

Question: What about the T/C (dose: 62.0 mg/kg/injection, schedule: Q01DX Z (sc), vehicle: steriod suspending solution) of the same compound?
Answer: 97 % of control

Question: What about the T/C (dose: 100.0 mg/kg/injection, schedule: Q01DX010 (sc), vehicle: steriod suspending solution) of the same compound?
Answer: 114 % of control and 100 % of control

Question: What about the T/C (dose: 125.0 mg/kg/injection, schedule: Q01DX Z (sc), vehicle: steriod suspending solution) of the same compound?
Answer: 91 % of control

Question: And the T/C (dose: 250.0 mg/kg/injection, schedule: Q01DX Z (sc), vehicle: steriod suspending solution)?
Answer: 101 % of control

Question: With `O=[n+]1c2c(n([O-])c3ccccc31)-c1cccc3cccc-2c13` as the compound, how does the T/C [1] read?
Answer: 88 % of control

Question: What about the T/C [2] of the same compound?
Answer: 94 % of control and 100 % of control

Question: And the T/C [3]?
Answer: 100 % of control

Question: And the T/C [4]?
Answer: 88 % of control and 100 % of control

Question: Which results are given for `O=C1C(NC(=O)C2CCCCC2)=C(N2CC2)C(=O)C(NC(=O)C2CCCCC2)=C1N1CC1`?
Answer: T/C (dose: 18.8 mg/kg/injection, schedule: Q01DX Z (ip), vehicle: carboxymethylcellulose (CMC)): 93 % of control; T/C [1]: 100 % of control; T/C (dose: 37.5 mg/kg/injection, schedule: Q01DX Z (ip), vehicle: carboxymethylcellulose (CMC)): 96 % of control; T/C [2]: 94 % of control; T/C (dose: 75.0 mg/kg/injection, schedule: Q01DX Z (ip), vehicle: carboxymethylcellulose (CMC)): 107 % of control; T/C [3]: 88 % of control; T/C (dose: 150.0 mg/kg/injection, schedule: Q01DX Z (ip), vehicle: carboxymethylcellulose (CMC)): 100 % of control; T/C [4]: 100 % of control; T/C (dose: 300.0 mg/kg/injection, schedule: Q01DX Z (ip), vehicle: carboxymethylcellulose (CMC)): 112 % of control; T/C (dose: 600.0 mg/kg/injection, schedule: Q01DX Z (ip), vehicle: carboxymethylcellulose (CMC)): 105 % of control and 120 % of control; T/C (dose: 1200.0 mg/kg/injection, schedule: Q01DX Z (ip), vehicle: carboxymethylcellulose (CMC)): 86 % of control

Question: Which results are given for `C[C@]12CCC(=O)C=C1CC[C@H]1[C@@H]3CC[C@](O)(C(=O)CO)[C@@]3(C)C[C@H](O)[C@@]12F`?
Answer: T/C (dose: 0.45 mg/kg/injection, schedule: Q01DX Z (sc), vehicle: steriod suspending solution): 97 % of control; T/C (dose: 0.9 mg/kg/injection, schedule: Q01DX Z (sc), vehicle: steriod suspending solution): 98 % of control; T/C (dose: 1.8 mg/kg/injection, schedule: Q01DX Z (sc), vehicle: steriod suspending solution): 110 % of control and 97 % of control; T/C (dose: 3.75 mg/kg/injection, schedule: Q01DX Z (sc), vehicle: steriod suspending solution): 106 % of control; T/C (dose: 7.5 mg/kg/injection, schedule: Q01DX Z (sc), vehicle: steriod suspending solution): 108 % of control; T/C (dose: 15.0 mg/kg/injection, schedule: Q01DX Z (sc), vehicle: steriod suspending solution): 106 % of control; T/C (dose: 30.0 mg/kg/injection, schedule: Q01DX Z (sc), vehicle: steriod suspending solution): 108 % of control; T/C (dose: 60.0 mg/kg/injection, schedule: Q01DX Z (sc), vehicle: steriod suspending solution): 102 % of control; T/C (dose: 120.0 mg/kg/injection, schedule: Q01DX Z (sc), vehicle: steriod suspending solution): 105 % of control

Question: `CN(C)c1ccc(/C=C/c2ccnc3ccccc23)cc1` was tested. Which T/C (dose: 0.2 mg/kg/injection, schedule: Q01DX Z (ip), vehicle: water) did it give?
Answer: 117 % of control

Question: And the T/C (dose: 0.8 mg/kg/injection, schedule: Q01DX Z (ip), vehicle: water)?
Answer: 98 % of control

Question: What about the T/C (dose: 1.6 mg/kg/injection, schedule: Q01DX Z (ip), vehicle: water) of the same compound?
Answer: 92 % of control

Question: And the T/C (dose: 3.1 mg/kg/injection, schedule: Q01DX Z (ip), vehicle: water)?
Answer: 91 % of control

Question: And the T/C (dose: 5.0 mg/kg/injection, schedule: Q01DX010 (ip), vehicle: saline)?
Answer: 88 % of control

Question: And the T/C [5]?
Answer: 108 % of control

Question: And the T/C (dose: 6.3 mg/kg/injection, schedule: Q01DX Z (ip), vehicle: water)?
Answer: 87 % of control

Question: And the T/C (dose: 10.0 mg/kg/injection, schedule: Q01DX010 (ip), vehicle: saline)?
Answer: 88 % of control and 90 % of control

Question: And the T/C [6]?
Answer: 108 % of control

Question: And the T/C (dose: 20.0 mg/kg/injection, schedule: Q01DX010 (ip), vehicle: saline)?
Answer: 88 % of control

Question: What about the T/C [7] of the same compound?
Answer: 114 % of control

Question: And the T/C (dose: 40.0 mg/kg/injection, schedule: Q01DX010 (ip), vehicle: saline)?
Answer: 88 % of control and 90 % of control

Question: And the T/C [8]?
Answer: 111 % of control

Question: `NC(CCSCc1ccc(N(CCCl)CCCl)cc1)C(=O)O` (stereo unspecified) was tested. Which T/C (dose: 4.5 mg/kg/injection, schedule: Q01DX010 (ip), vehicle: saline) did it give?
Answer: 88 % of control

Question: What about the T/C (dose: 9.0 mg/kg/injection, schedule: Q01DX010 (ip), vehicle: saline) of the same compound?
Answer: 100 % of control

Question: And the T/C (dose: 18.0 mg/kg/injection, schedule: Q01DX010 (ip), vehicle: saline)?
Answer: 88 % of control

Question: What about the T/C (dose: 36.0 mg/kg/injection, schedule: Q01DX010 (ip), vehicle: saline) of the same compound?
Answer: 100 % of control

Question: And the T/C (dose: 54.0 mg/kg/injection, schedule: Q01DX010 (ip), vehicle: saline)?
Answer: 161 % of control

Question: And the T/C (dose: 80.0 mg/kg/injection, schedule: Q01DX010 (ip), vehicle: saline)?
Answer: 172 % of control

Question: Which T/C [7] does the source give for `C[C@@H]1C[C@H]2CC[C@H](O2)[C@H](C)C(=O)O[C@@H](C)C[C@@H]2CC[C@@H](O2)[C@@H](C)C(=O)O[C@H](C)C[C@H]2CC[C@H](O2)[C@H](C)C(=O)O[C@@H](C)C[C@@H]2CC[C@@H](O2)[C@@H](C)C(=O)O1` here?
Answer: 98 % of control

Question: What about the T/C [8] of the same compound?
Answer: 96 % of control

Question: What about the T/C (dose: 100.0 mg/kg/injection, schedule: Q01DX Z (ip), vehicle: carboxymethylcellulose (CMC)) of the same compound?
Answer: 120 % of control

Question: What about the T/C (dose: 200.0 mg/kg/injection, schedule: Q01DX Z (ip), vehicle: carboxymethylcellulose (CMC)) of the same compound?
Answer: 111 % of control

Question: `N[C@@H](Cc1ccc(N(CCCl)CCCl)cc1)C(=O)O` was tested. Which T/C (dose: 0.62 mg/kg/injection, schedule: Q01DX Z (ip), vehicle: saline) did it give?
Answer: 151 % of control

Question: What about the T/C (dose: 1.25 mg/kg/injection, schedule: Q01DX Z (ip), vehicle: saline) of the same compound?
Answer: 181 % of control and 196 % of control

Question: What about the T/C (dose: 2.5 mg/kg/injection, schedule: Q01DX Z (ip), vehicle: saline) of the same compound?
Answer: 172 % of control

Question: And the T/C (dose: 5.0 mg/kg/injection, schedule: Q01DX Z (ip), vehicle: saline)?
Answer: 207 % of control

Question: And the T/C (dose: 10.0 mg/kg/injection, schedule: Q01DX Z (ip), vehicle: saline)?
Answer: 108 % of control and 113 % of control

Question: For `CCn1cnc2c(=S)nc[nH]c21`, which T/C (dose: 15.6 mg/kg/injection, schedule: Q01DX Z (ip), vehicle: carboxymethylcellulose (CMC)) is on record?
Answer: 92 % of control

Question: What about the T/C (dose: 31.25 mg/kg/injection, schedule: Q01DX Z (ip), vehicle: carboxymethylcellulose (CMC)) of the same compound?
Answer: 92 % of control

Question: What about the T/C [9] of the same compound?
Answer: 90 % of control

Question: And the T/C (dose: 62.5 mg/kg/injection, schedule: Q01DX Z (ip), vehicle: carboxymethylcellulose (CMC))?
Answer: 93 % of control

Question: What about the T/C [10] of the same compound?
Answer: 90 % of control

Question: Which T/C [5] does the source give for `CCCSc1ncnc2nc[nH]c12` here?
Answer: 113 % of control

Question: What about the T/C [6] of the same compound?
Answer: 105 % of control

Question: What about the T/C (dose: 31.3 mg/kg/injection, schedule: Q01DX010 (ip), vehicle: saline) of the same compound?
Answer: 88 % of control

Question: What about the T/C [8] of the same compound?
Answer: 115 % of control

Question: And the T/C [9]?
Answer: 94 % of control

Question: And the T/C [10]?
Answer: 88 % of control

From PubChem BioAssay AID216 (DTP/NCI, 2004)
